Laboratory results as given in PubChem BioAssay (NCI).
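1) Cells in 96-well plates. 2) Compound, 48 h, 5 concentrations. 3) Linear interpolation between surrounding doses. 4) Unreached endpoint = highest concentration. GI50 marks 50% less growth. TGI denotes the concentration required for complete inhibition of growth.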

How the values were obtained:
Assay in all cases: NCI anticancer screen, dose series, 48 h
HS 578T breast = tested on: HS 578T breast
HT29 colon = tested on: HT29 colon
K-562 leukemia = tested on: K-562 leukemia
MOLT-4 leukemia = tested on: MOLT-4 leukemia
OVCAR-8 ovarian = tested on: OVCAR-8 ovarian
SF-539 CNS = tested on: SF-539 CNS
SK-MEL-2 melanoma = tested on: SK-MEL-2 melanoma
SK-MEL-28 melanoma = tested on: SK-MEL-28 melanoma
SW-620 colon = tested on: SW-620 colon
UACC-62 melanoma = tested on: UACC-62 melanoma

SMILES	GI50 (HS 578T breast) [µM]	GI50 (HT29 colon) [µM]	TGI (HT29 colon) [µM]	GI50 (K-562 leukemia) [µM]	TGI (K-562 leukemia) [µM]	GI50 (MOLT-4 leukemia) [µM]	TGI (MOLT-4 leukemia) [µM]	GI50 (OVCAR-8 ovarian) [µM]	TGI (OVCAR-8 ovarian) [µM]	GI50 (SF-539 CNS) [µM]	TGI (SF-539 CNS) [µM]	GI50 (SK-MEL-2 melanoma) [µM]	TGI (SK-MEL-2 melanoma) [µM]	GI50 (SK-MEL-28 melanoma) [µM]	TGI (SK-MEL-28 melanoma) [µM]	GI50 (SW-620 colon) [µM]	TGI (SW-620 colon) [µM]	GI50 (UACC-62 melanoma) [µM]	TGI (UACC-62 melanoma) [µM]	TGI (HS 578T breast) [µM]
Nc1ccc(C(=O)c2ccc(N)c(Br)c2)cc1Br	0.345	0.335	1.18	0.271	22.2	0.654	59.4	0.518	46.1	0.296	3.16	0.435	3.99	1.09	> 100	0.379	> 100	0.645	> 62.1	–
Cn1ccc2c(NCCN)c3c(c(NCCN)c21)C(=O)c1ccccc1C3=O	1.84	7.77	> 44.8	0.589	83.6	< 0.0429	–	2.84	13.4	0.291	1.55	2.33	11.5	15.6	36.7	0.514	2.59	2.17	5.86	5.26
CCC1=C[C@@H]2CN(C1)Cc1c([nH]c3ccccc13)[C@@](C(=O)OC)(c1cc3c(cc1OC)N(C=O)[C@H]1[C@@](O)(C(=O)OC)[C@H](OC(C)=O)[C@]4(CC)[C@@H]5C[C@@H]5CN5CC[C@]31[C@@H]54)C2	0.00181	< 0.000625	> 6.25	< 0.000625	> 6.25	0.000789	> 6.25	0.00268	> 6.25	0.000646	0.0201	< 0.000625	> 6.25	0.0014	> 6.25	0.000656	> 6.25	< 0.000625	> 6.25	> 6.25
COc1ccc(CNc2nc3cc(N)cc(N)c3nc2-c2ccccc2)cc1OC	23.4	7.26	46.2	10.9	> 100	3.92	> 100	10.5	32.1	18.9	41.1	13.9	49.5	15	33.8	7.77	> 58.9	11.7	24.9	> 68.6
C=C1C[C@@H]2C/C=C/C(=O)C/C(C)=C\C=C\C(=O)O[C@H](C=O)C/C(C)=C/[C@H](C1)O2	4.23	0.281	12.6	0.16	> 40.2	2.72	13.7	1.49	> 100	0.328	1.64	6.1	34.9	2.91	20.5	0.449	15.7	0.818	14	> 65.1
CC1(C)COCN1COC1CCCCC1	–	–	> 100	–	> 100	–	83.9	–	> 100	–	> 100	–	> 100	–	> 100	–	> 100	–	> 100	> 100
O=C(c1cc(F)c(Cl)cc1Cl)N1N=C(c2ccccc2)CC1(O)c1ccccc1 (stereo not drawn)	23.8	12.1	25.3	12.2	27.2	19.8	43	25.5	72.4	16.5	30.2	18.1	38	16.2	31.6	18.9	36.9	11.1	23.9	58.8
